Test results as given in US10526325B2, “Bicyclic heterocyclic derivatives” (Merck Patent GmbH, priority 2015, dated 2020).

What was measured:
[1] = system: PDH-E1alpha (pSer300) in HEK293T cells; experiment: Cellular immunofluorescence assay, PDH-E1alpha (pSer300) in HEK293T cells; type: cell-based, human; conditions: Homo sapiens, HEK-293T, 5 hours incubation, anti-PDH-E1alpha (pSer300) immunofluorescence, read-out: IC50 (cell data)
Experimental: Cellular Assay for Determination of Compound Activities
Compound activities were determined in a cellular immunofluorescence assay. Human HEK293T cells were seeded into black 384-well plates with clear bottom and grown overnight.
Next day, test compounds were added to the wells and the plates incubated for 5 hours. Following this, cells were fixed with formaldehyde, permeabilised and blocked. The primary antibody, Anti-PDH-E1alpha (pSer300), AP1064 (Merck Millipore) was added and incubated overnight in the plate wells. Next, cells were washed and the secondary antibody, Alexa Fluor 488, goat anti-rabbit ab (A-11008, Invitrogen) was added together with Hoechst 33258 (H3569, Invitrogen) and incubated for 1 hour in the plate wells. Finally, cells were washed and the plates were measured on the laser scanning cytometer acumen hci (TTpLabtech).
The raw data were normalized against a pharmacological inhibitor control and dose response curves were generated by plotting the percent effect values using the software package Genedata screener (Genedata).

human PDHK2 (12-407) = human PDHK2 (12-407) (Homo sapiens (Human), UniProt Q15119); experiment: Isothermal titration calorimetry (ITC) binding; conditions: ITC at 30° C., pH 7.5
Experimental: Isothermal Titration Calorimetry
ITC measurements were performed with a VP-ITC micro calorimeter (Microcal, LLC/GE Healthcare Bio-Sciences Aft Uppsala, Sweden). In general titrations were performed by titrating the protein (50 μM) to the test compound (5 μM) in 12 μl injections. All binding experiments were carried out at 30° C. In general the test compounds were diluted form DMSO stock solutions into the measurement buffer with a maximum final concentration of 1% DMSO. The measurement buffer was 20 mM HEPES, 135 mM KCl, 1 mM TCEP, 2 mM MgCl2, 15 mM NaH2PO4, pH 7.5. The human PDHK2 (12-407) was produced in E. coli as his-tagged protein and purified by affinity chromatography. The tag was removed by side specific proteolysis. Before titration the protein buffer was changed to the measurement buffer containing the same DMSO concentration as the test compound dilution. ITC data analysis was performed using Origin 7 calorimetry software from the same supplier. For most measurements a binding model of one binding site was assumed. According to the applied mathematical model it is possible to calculate the binding constant (KA), the observed binding enthalpy (ΔH^obs) as well as the stoichiometry (N) of the formed complex.
Preceding analysis the raw data was corrected for the heats of dilution by extrapolating from the saturation value from the end of titration. In order to allow for direct comparison between the respective experimental series and protein preparations the protein concentration was corrected by referencing titrations to a well behaved standard inhibitor. The apparent stoichiometry values defined the fraction of binding competent protein and compensated for relative errors in protein concentration measurements. This corrected protein concentration was used to set up ITC experiment series with test compounds. Any deviations from ideal 1:1 stoichiometry observed here were attributed to errors in compound concentration. This nominal compound concentration was corrected as well to achieve 1:1 stoichiometry in the fit.

PDHK2 = PDHK2 (Homo sapiens (Human), UniProt Q15119); experiment: Biochemical activity testing of PDHK2: PDC inactivation assay; conditions: human rec PDHK2, porcine heart PDC, 5 μM ATP, read-out: IC50 PDHK2 (enzyme assay)
From the text: Biochemical Activity Testing of PDHK2: PDC Inactivation Assay
The biochemical activity assay for PDHK2 is based on the inactivation of PDC through phosphorylation by PDHK2. The assay is run in two steps: the enzymatic PDHK2 reaction in which isolated PDC is phosphorylated by PDHK2 with ATP as co-substrate and the PDC activity assay in which pyruvate and NAD are converted to acetyl-CoA and NADH. The PDC activity correlates to the increase in NADH and thereby is detectable directly via the increasing fluorescence signal (Exc 340 nm, Em 450 nm). Inhibition of PDHK2 results in a lower phosphorylation status and thereby a less decrease in activity of PDC and a stronger increase in NADH fluorescence signal.
The PDC inactivation assay is performed in Greiner 384-well microtiter plates and is used for high throughput screen. 4 μl of PDHK2 (human, rec, Carna Bioscience, 10 ng/μl-137 nM final concentration) and PDC (isolated from porcine heart, Sigma-Aldrich, 20 mU/ml final concentration) are incubated in the absence or presence of the test compound (10 dilution concentrations) for 30 min at room temperature in kinase buffer (15 mM potassium phosphate buffer, pH 7.0, 60 mM KCl, 1.5 mM DTT, 2.5 mM MgCl2, 0.0125% (w/v) BSA, 0.125% Pluronic F-68). The kinase reaction is started by the addition of 4 μl ATP substrate solution (fc 5 μM in kinase buffer). After 30 min incubation at 37° C. 40 μl of PDC reaction solution (100 mM Tris/HCl, pH 7.8, 0.5 mM EDTA, 1 mM MgCl2, 50 mM NaF, 0.25 mM Coenzyme A, 5 mM pyruvate, 1 mM NAD, 5 mM DTT, 1 mM thiamine pyrophosphate) is added. The first fluorescence measurement is performed on a Perkin Elmer Envision (Exc 340 nm, Em 450 nm). The reaction is incubated for 45 min at room temperature. Afterwards a second fluorescence measurement is performed and the PDC activity is calculated by the difference between both measurements. As full value for the PDHK2 assay the inhibitor-free PDHK2 reaction is used. The pharmacological zero value used is DCA (Sigma-Aldrich) in a final concentration of 3 mM. The inhibitory values […] were determined using either the program Symyx Assay Explorer® or Condosseo® from GeneData.

Kd (human PDHK2 (12-407)) [nM] | IC50 (PDHK2) [nM] | SMILES | IC50 [1] [nM]
< 300 | < 300 | C[C@@](O)(C(=O)N1CCc2c(cnn2-c2ccc(Cl)cc2)C1)C(F)(F)F [Compound A1, (2R)-1-[1-(4-chlorophenyl)-6,7-dihydro-4H-pyrazolo[4,3-c]pyridin-5-yl]-3,3,3-trifluoro-2-hydroxy-2-methyl-propan-1-one] | 3000 to 50000
300 to 3000 | 3000 to 50000 | C[C@@](O)(C(=O)N1CCc2nn(-c3ccc(Cl)cc3)cc2C1)C(F)(F)F [Compound A2, (2R)-1-[2-(4-chlorophenyl)-6,7-dihydro-4H-pyrazolo[4,3-c]pyridin-5-yl]-3,3,3-trifluoro-2-hydroxy-2-methyl-propan-1-one] | –
< 300 | < 300 | C[C@@](O)(C(=O)N1CCc2c(cnn2-c2ccccc2)C1)C(F)(F)F [Compound A3, (R)-3,3,3-Trifluoro-2-hydroxy-2-methyl-1-(1-phenyl-1,4,6,7-tetrahydro-pyrazolo[4,3-c]pyridin-5-yl)-propan-1-one] | 300 to 3000
< 300 | < 300 | C[C@@](O)(C(=O)N1CCc2c(cnn2-c2ccc(F)cc2)C1)C(F)(F)F [Compound A4, (R)-3,3,3-Trifluoro-1-[1-(4-fluoro-phenyl)-1,4,6,7-tetrahydro-pyrazolo[4,3-c]pyridin-5-yl]-2-hydroxy-2-methyl-propan-1-one] | 300 to 3000
< 300 | < 300 | C[C@@](O)(C(=O)N1CCc2c(cnn2-c2ccc(F)cc2F)C1)C(F)(F)F [Compound A5, (R)-1-[1-(2,4-Difluoro-phenyl)-1,4,6,7-tetrahydro-pyrazolo[4,3-c]pyridin-5-yl]-3,3,3-trifluoro-2-hydroxy-2-methyl-propan-1-one] | 300 to 3000
< 300 | 300 to 3000 | C[C@@](O)(C(=O)N1CCc2nn(-c3ccc(F)cc3F)cc2C1)C(F)(F)F [Compound A6, (R)-1-[2-(2,4-Difluoro-phenyl)-2,4,6,7-tetrahydro-pyrazolo[4,3-c]pyridin-5-yl]-3,3,3-trifluoro-2-hydroxy-2-methyl-propan-1-one] | 3000 to 50000
< 300 | < 300 | CC(C)(C)n1ncc2c1CCN(C(=O)[C@@](C)(O)C(F)(F)F)C2 [Compound A7, (R)-1-(1-tert-Butyl-1,4,6,7-tetrahydro-pyrazolo[4,3-c]pyridin-5-yl)-3,3,3-trifluoro-2-hydroxy-2-methyl-propan-1-one] | 300 to 3000
– | 300 to 3000 | C[C@H]1CN(C(=O)[C@@](C)(O)C(F)(F)F)Cc2cnn(-c3ccc(F)cc3)c21 [Compound A15, (R)-3,3,3-Trifluoro-1-[(S)-1-(4-fluoro-phenyl)-7-methyl-1,4,6,7-tetrahydro-pyrazolo[4,3-c]pyridin-5-yl]-2-hydroxy-2-methyl-propan-1-one] | 300 to 3000
– | 300 to 3000 | C[C@H]1CN(C(=O)[C@@](C)(O)C(F)(F)F)Cc2cnn(-c3ccccc3)c21 [Compound A19, (R)-3,3,3-Trifluoro-2-hydroxy-2-methyl-1-((S)-7-methyl-1-phenyl-1,4,6,7-tetrahydro-pyrazolo[4,3-c]pyridin-5-yl)-propan-1-one] | 300 to 3000
300 to 3000 | 300 to 3000 | C[C@H]1CN(C(=O)[C@@](C)(O)C(F)(F)F)Cc2cn[nH]c21 [Compound A29, (R)-3,3,3-Trifluoro-2-hydroxy-2-methyl-1-((S)-7-methyl-1,4,6,7-tetrahydro-pyrazolo[4,3-c]pyridin-5-yl)-propan-1-one] | –
< 300 | 300 to 3000 | C[C@@H]1CN(C(=O)C(C)(C)O)Cc2cnn(-c3ccc(F)cc3)c21 [Compound A42, 1-[(R)-1-(4-Fluoro-phenyl)-7-methyl-1,4,6,7-tetrahydro-pyrazolo[4,3-c]pyridin-5-yl]-2-hydroxy-2-methyl-propan-1-one] | –
< 300 | 300 to 3000 | C[C@@](O)(C(=O)N1CCn2c(nnc2-c2ccccc2)C1)C(F)(F)F [Compound A48, (R)-3,3,3-Trifluoro-2-hydroxy-2-methyl-1-(3-phenyl-5,6-dihydro-8H-[1,2,4]triazolo[4,3-a]pyrazin-7-yl)-propan-1-one] | –
– | 3000 to 50000 | C[C@H]1CN(C(=O)[C@@](C)(O)C(F)(F)F)Cc2cnc(-c3ncc(F)cc3F)n21 [Compound A56, (R)-1-[(S)-3-(3,5-Difluoro-pyridin-2-yl)-5-methyl-5,6-dihydro-8H-imidazo[1,5-a]pyrazin-7-yl]-3,3,3-trifluoro-2-hydroxy-2-methyl-propan-1-one] | –

SMILES | Kd (human PDHK2 (12-407)) [nM] | IC50 (PDHK2) [nM] | IC50 [1] [nM]
CC(C)(C)n1cc2c(n1)CCN(C(=O)[C@@](C)(O)C(F)(F)F)C2 [Compound A8, (R)-1-(2-tert-Butyl-2,4,6,7-tetrahydro-pyrazolo[4,3-c]pyridin-5-yl)-3,3,3-trifluoro-2-hydroxy-2-methyl-propan-1-one] | 300 to 3000 | 300 to 3000 | 3000 to 50000
CC1CN(C(=O)[C@@](C)(O)C(F)(F)F)Cc2cnn(-c3ccc(Cl)cc3)c21 (stereo partly drawn) [Compound A9, (2R)-1-[1-(4-chlorophenyl)-7-methyl-6,7-dihydro-4H-pyrazolo[4,3-c]pyridin-5-yl]-3,3,3-trifluoro-2-hydroxy-2-methyl-propan-1-one] | < 300 | < 300 | < 300
C[C@@H]1CN(C(=O)[C@@](C)(O)C(F)(F)F)Cc2cnn(-c3ccc(Cl)cc3)c21 [Compound A10, (R)-1-[(R)-1-(4-Chloro-phenyl)-7-methyl-1,4,6,7-tetrahydro-pyrazolo[4,3-c]pyridin-5-yl]-3,3,3-trifluoro-2-hydroxy-2-methyl-propan-1-one] | < 300 | < 300 | < 300
C[C@@](O)(C(=O)N1CCc2c(ncn2-c2ccc(F)cc2)C1)C(F)(F)F [Compound A44, (R)-3,3,3-Trifluoro-1-[1-(4-fluoro-phenyl)-1,4,6,7-tetrahydro-imidazo[4,5-c]pyridin-5-yl]-2-hydroxy-2-methyl-propan-1-one] | – | 300 to 3000 | 3000 to 50000
C[C@@](O)(C(=O)N1CCc2c(ncn2-c2ccc(Cl)cc2)C1)C(F)(F)F [Compound A45, (R)-1-[1-(4-Chloro-phenyl)-1,4,6,7-tetrahydro-imidazo[4,5-c]pyridin-5-yl]-3,3,3-trifluoro-2-hydroxy-2-methyl-propan-1-one] | – | 300 to 3000 | 3000 to 50000
